One block for each compound: values may come before it.
Columns and labels:
[1] = physiological concentrations observed in patients; cited from earlier work
[2] = system: colorectal cancer organoids; experiment: Inhibition of colorectal cancer organoid growth by bortezomib (cell killing control); assay type: cell-based, human; details: at 1 μM; three cancer organoids; image analysis and CellTitreGlo 3D (FIG. 17)
Description: The bortezomib concentration of 1 um was selected as positive (killing) control, indicated by the dashed red line.
Organoids were digested with TrypLE Express enzyme at 37° C. for 15-20 min. Digestion was terminated in 1% BSA in DMEM/F12 and fragments were collected by centrifugation. Pellets were resuspended in culture medium, dissociated with a 26 G needle and filtered through a 40 μm cell strainer (Bio-Strategy, BDAA352340) to produce a single cell suspension. Live cells were counted using a hemocytometer and trypan blue staining. Single cells (3000 cells in 60 μl/well) were suspended in culture medium with 3% Matrigel, penicillin-streptomycin, normocin and 10 μM Y27632 and seeded in 384-well optical plates (Thermo Fisher Scientific, NUN242764) using a MANTIS® liquid handling robot (Formulatrix), and established for 3 days prior to drug addition. […]
Plate uniformity in the 384-well format was evaluated for maximum (Max) signals, minimum (Min) signals, and drug dose-dependent midpoint (Mid) signals (FIG. 15c-f). […] Organoid viability was determined by both image analysis and CellTiter-Glo 3D luminescence measurements. Mean organoid size and luminescence signals were visualized as heatmaps for each plate and plotted by wells for each plate row from left to right or as drug dose-response curves.

[3] = system: cancer organoid WCB024T; experiment: Regorafenib dose-response in 384-well LVM suspension culture, image analysis (mean organoid size); assay type: cell-based; details: Homo sapiens, 168 h, imaging, 7 days drug, 3% Matrigel, read-out: Mean ED50
Description: (§1) Organoids were digested with TrypLE Express enzyme at 37° C. for 15-20 min. Digestion was terminated in 1% BSA in DMEM/F12 and fragments were collected by centrifugation. Pellets were resuspended in culture medium, dissociated with a 26 G needle and filtered through a 40 μm cell strainer (Bio-Strategy, BDAA352340) to produce a single cell suspension. Live cells were counted using a hemocytometer and trypan blue staining. Single cells (3000 cells in 60 μl/well) were suspended in culture medium with 3% Matrigel, penicillin-streptomycin, normocin and 10 μM Y27632 and seeded in 384-well optical plates (Thermo Fisher Scientific, NUN242764) using a MANTIS® liquid handling robot (Formulatrix), and established for 3 days prior to drug addition. For plate uniformity studies, 1 μM bortezomib (Selleck, S1013) was used as the positive control, and 0.5% DMSO (Sigma, D2650) was used as a negative vehicle control. For the drug-dose response curves, regorafenib (Selleck, S1178) was used in a 9 point 4-fold titration series starting at 50 μM. All compound plates were prepared using a JANUS liquid handling robot (PerkinElmer) and stamped into 384-well plates using an integrated PinTool addition accessory (PerkinElmer).
(§2) PDTOs were imaged every 24 h for 7 days by bright-field microscopy as z-stacks on an automated Eclipse Ti2 Inverted Microscope System with an integrated tissue culture incubator (Nikon). 384-well images were captured using a 4× dry objective and Nikon Eclipse Ti2 software with a 25 μm Z-stack over a range of 500 μm. On day 7, 20μl CellTiter-Glo 3D reagent (Promega, G9683) was added using the MANTIS® liquid handling robot, plates were shaken at 1000 rpm for 30 mins at room temperature and luminescence measured using an EnVision plate reader (PerkinElmer).
(§3) For image analysis, flattening of Z-stack bright-field images, removal of background debris and selection of organoids were performed using ImageJ software (NIH Image). The projection of z-stack images onto a single in-focus image was carried out using the Extended Depth of Field (EDF) plugin in “easy mode”, with the parameter quality=′1′ and topology=1′. Processed images were exported as high-quality tiff files. Background debris removal was performed by with a series of steps including Subtract Background, Enhance Local Contrast (CLAHE), set AutoThreshold, set Black Background, and Convert to Mask. Organoid selection and feature extraction were achieved using sequential Analyze Particles, Invert LUT, Fill Holes, Watershed, Set Measurements and Analyze Particles steps. Features of selected organoids were exported as text files for determination of mean organoid size.
(§4) For comparison of uniformity of regorafenib dose response curves between imaging and CellTitreGlo 3D data, response curves were fitted using a 4-parameter log-logistic function to percent viability data.
(§5) Plate uniformity in the 384-well format was evaluated for maximum (Max) signals, minimum (Min) signals, and drug dose-dependent midpoint (Mid) signals (FIG. 15c-f). To determine Max signals, organoids were established for 3 days, treated with 0.5% DMSO (vehicle control) using a JANUS Automated Liquid Handling Workstation with a 384 pin tool, and incubated for 7 days. […] To evaluate dose-dependent Mid signals, regorafenib was titrated across each half of the assay plate in a 9-step, 4-fold dilution series starting from 50 μM, generating a total of 24 drug dose-response curves. Organoid viability was determined by both image analysis and CellTiter-Glo 3D luminescence measurements. Mean organoid size and luminescence signals were visualized as heatmaps for each plate and plotted by wells for each plate row from left to right or as drug dose-response curves.

[4] = system: cancer organoid WCB088T; experiment: as above; assay type: cell-based; details: Homo sapiens, 168 h, imaging, 7 days drug, 3% Matrigel, read-out: Mean ED50
Description: as §1, §2, §3, §4, §5

[5] = system: cancer organoid WCB123LU; experiment: as above; assay type: cell-based; details: Homo sapiens, 168 h, imaging, 7 days drug, 3% Matrigel, read-out: Mean ED50
Description: as §1, §2, §3, §4, §5

[6] = system: cancer organoid WCB024T; experiment: Regorafenib dose-response in 384-well LVM suspension culture, CellTitre-Glo 3D viability assay; assay type: cell-based; details: Homo sapiens, 168 h, 7 days drug, 3% Matrigel, read-out: Mean ED50
Description: as §1, §2, §4, §5

[7] = system: cancer organoid WCB088T; experiment: as above; assay type: cell-based; details: Homo sapiens, 168 h, 7 days drug, 3% Matrigel, read-out: Mean ED50
Description: as §1, §2, §4, §5

[8] = system: cancer organoid WCB123LU; experiment: as above; assay type: cell-based; details: Homo sapiens, 168 h, 7 days drug, 3% Matrigel, read-out: Mean ED50
Description: as §1, §2, §4, §5

[9] = system: mitochondrial function; details: Weng, Z. et al. (2015) Toxicology 327, 10-21; cited from earlier work

Compound: O=c1[nH]cc(F)c(=O)[nH]1 [5-FU, 5-fluorouracil]
Cmax [1]: ~7.5 µM

Compound: CCc1c2c(nc3ccc(O)cc13)-c1cc3c(c(=O)n1C2)COC(=O)[C@]3(O)CC [SN-38]
Cmax [1]: ~0.14 µM

Compound: CC(C)C[C@H](NC(=O)[C@H](Cc1ccccc1)NC(=O)c1cnccn1)B(O)O [bortezomib]
growth inhibition (cell killing control) [2]: complete growth inhibition

Compound: O=C1[O][Pt]2([NH][C@@H]3CCCC[C@H]3[NH]2)[O]C1=O [oxaliplatin]
Cmax [1]: ~5 µM

EC50 ([3]; Mid (Left) plate half): 1540 nM | EC50 ([3]; Mid (Right) plate half): 2280 nM | EC50 ([4]; Mid (Left) plate half): 6090 nM | EC50 ([4]; Mid (Right) plate half): 10200 nM | EC50 ([5]; Mid (Left) plate half): 1230 nM | EC50 ([5]; Mid (Right) plate half): 1560 nM | EC50 ([6]; Mid (Left) plate half): 3690 nM | EC50 ([6]; Mid (Right) plate half): 5150 nM | EC50 ([7]; Mid (Left) plate half): 1980 nM | EC50 ([7]; Mid (Right) plate half): 3410 nM | EC50 ([8]; Mid (Left) plate half): 1010 nM | EC50 ([8]; Mid (Right) plate half): 1100 nM
Compound: CNC(=O)c1cc(Oc2ccc(NC(=O)Nc3ccc(Cl)c(C(F)(F)F)c3)c(F)c2)ccn1 [regorafenib]
effect on mitochondrial function and cellular ATP levels [9]: impair mitochondrial function and decrease cellular ATP levels | Cmax [1]: ~7.3 µM

Compound: TAS-102
Cmax [1]: ~18.2 µM
